From patent US10550105B2 (Ribon Therapeutics Inc., priority 2018, dated 2020)

These compounds were tested against PARP7 (Homo sapiens (Human), UniProt Q7Z3E1) (assay: Enzymatic assay for inhibition of PARP7: TR-FRET displacement of biotinylated Probe A from the TIPARP active site). Conditions: Table A-1.
Format: binding
Summary of the method: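 TR-FRET, ex 320 nm / em 615 and 665 nm. Signal ratio reflects complex formation.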

Sequence of PARP7 (Q7Z3E1 whole entry): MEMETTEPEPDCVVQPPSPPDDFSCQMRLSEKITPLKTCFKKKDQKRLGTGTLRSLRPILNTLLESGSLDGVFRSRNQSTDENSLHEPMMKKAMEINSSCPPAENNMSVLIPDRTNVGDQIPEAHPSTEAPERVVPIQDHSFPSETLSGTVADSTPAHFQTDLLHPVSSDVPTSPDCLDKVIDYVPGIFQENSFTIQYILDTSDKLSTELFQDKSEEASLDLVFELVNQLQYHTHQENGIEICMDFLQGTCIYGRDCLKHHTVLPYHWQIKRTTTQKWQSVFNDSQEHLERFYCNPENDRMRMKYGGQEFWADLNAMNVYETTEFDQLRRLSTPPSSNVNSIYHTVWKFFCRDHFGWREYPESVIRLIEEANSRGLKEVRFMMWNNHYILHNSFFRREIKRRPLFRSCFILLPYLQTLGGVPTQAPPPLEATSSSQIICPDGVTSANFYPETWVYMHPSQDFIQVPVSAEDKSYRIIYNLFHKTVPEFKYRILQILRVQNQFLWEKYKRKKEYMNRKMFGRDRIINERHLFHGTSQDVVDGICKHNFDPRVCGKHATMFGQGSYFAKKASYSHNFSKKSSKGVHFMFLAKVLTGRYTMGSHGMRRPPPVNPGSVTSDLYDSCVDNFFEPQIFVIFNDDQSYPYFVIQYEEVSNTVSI

SMILES	IC50 [nM]
C[C@H](CC(=O)N1CCN(c2ccc(C#N)cn2)CC1)OCCOc1cn[nH]c(=O)c1C(F)(F)F (single isomer, unassigned) [Example 538 Isomer A]	100 to 1000
O=C(c1cccc(OC[C@H]2c3ccccc3CN2c2cn[nH]c(=O)c2C(F)(F)F)c1)N1CCN(c2ncc(C(F)(F)F)cn2)CC1 [Example 391, (R)-4-(Trifluoromethyl)-5-(1-((3-(4-(5-(trifluoromethyl)pyrimidin-2-yl)piperazine-1-carbonyl)phenoxy)methyl)isoindolin-2-yl)pyridazin-3(2H)-one]	≥ 1000
CN1CCN(C(=O)CCOC[C@H]2c3ccccc3CN2c2cn[nH]c(=O)c2C(F)(F)F)CC1 [Example 422, (R)-5-(1-((3-(4-Methylpiperazin-1-yl)-3-oxopropoxy)methyl)isoindolin-2-yl)-4-(trifluoromethyl)pyridazin-3(2H)-one]	≥ 1000
C[C@H](COCCC(=O)N1CCN(c2ccc(C#N)cn2)CC1)Oc1cn[nH]c(=O)c1C(F)(F)F [Example 530B, 6-(4-[3-[(2R)-2-[[6-Oxo-5-(trifluoromethyl)-1,6-dihydropyridazin-4-yl]oxy]propoxy]propanoyl]piperazin-1-yl)pyridine-3-carbonitrile]	100 to 1000
CN(C)CCOc1cccc2c1CN(c1cn[nH]c(=O)c1C(F)(F)F)C2 [Example 212, 5-(4-(2-(Dimethylamino)ethoxy)isoindolin-2-yl)-4-(trifluoromethyl)pyridazin-3(2H)-one]	100 to 1000
CN(CC1c2ccccc2CN1c1cn[nH]c(=O)c1C(F)(F)F)c1cccc(C(=O)N2CCN(c3ccccn3)CC2)c1 (centres unmarked) [Example 344, 5-(1-((Methyl(3-(4-(pyridin-2-yl)piperazine-1-carbonyl)phenyl)amino)methyl)isoindolin-2-yl)-4-(trifluoromethyl)pyridazin-3(2H)-one]	100 to 1000
CNCc1cccc2c1CN(c1cn[nH]c(=O)c1C(F)(F)F)C2 [Example 262, 5-(4-((Methylamino)methyl)isoindolin-2-yl)-4-(trifluoromethyl)pyridazin-3(2H)-one]	≥ 1000
C[C@@H](COc1cn[nH]c(=O)c1C(F)(F)F)OCCC(=O)N1CCN(c2ccc(C#N)cn2)CC1 [Example 530C, 6-[4-(3-[[(2S)-1-[[6-Oxo-5-(trifluoromethyl)-1,6-dihydropyridazin-4-yl]oxy]propan-2-yl]oxy]propanoyl)piperazin-1-yl]pyridine-3-carbonitrile]	100 to 1000
CN1CCN(CCOc2cccc3c2CN(c2cn[nH]c(=O)c2Cl)C3)CC1 [Example 255, 4-Chloro-5-(4-(2-(4-methylpiperazin-1-yl)ethoxy)isoindolin-2-yl)pyridazin-3(2H)-one]	≥ 1000
O=C(C[C@@H]1CC[C@H]([C@@H]2CCCN2c2cn[nH]c(=O)c2C(F)(F)F)O1)N1CCN(c2ncc(Cl)cn2)CC1 (single isomer, unassigned) [Example 147C]	100 to 1000
O=C(CCOC[C@@H]1CCCN1c1cn[nH]c(=O)c1C(F)(F)F)N[C@H]1CC[C@@H](Nc2ccccn2)CC1 (single isomer, unassigned; isomer b) [Example 81 Isomer B]	≥ 1000
C[C@@H](COCCCC(=O)N1CCN(c2ncc(C(F)(F)F)cn2)CC1)Nc1cn[nH]c(=O)c1C(F)(F)F [Example 634, (S)-5-((1-(4-Oxo-4-(4-(5-(trifluoromethyl)pyrimidin-2-yl)piperazin-1-yl)butoxy)propan-2-yl)amino)-4-(trifluoromethyl)pyridazin-3(2H)-one]	< 100
N#Cc1ccc(N2CCN(C(=O)CCO[C@@H](CO)COc3cn[nH]c(=O)c3C(F)(F)F)CC2)nc1 (single isomer, unassigned) [Example 573 Isomer A]	< 100
N#Cc1ccc(N2CCN(C(=O)C[C@H]3CCC[C@H](COc4cn[nH]c(=O)c4C(F)(F)F)O3)CC2)nc1 (single isomer, unassigned) [Example 583 Isomer B]	≥ 1000
N#Cc1ccc(N2CCN(C(=O)C[C@@H]3CC[C@@H](COc4cn[nH]c(=O)c4Cl)O3)CC2)nc1 (single isomer, unassigned) [Example 582 Isomer A]	≥ 1000
N#Cc1ccc(N2CCN(C(=O)c3cncc(OC[C@H]4c5ccccc5CN4c4cn[nH]c(=O)c4C(F)(F)F)c3)CC2)nc1 [Example 354, (R)-6-(4-(5-((2-(6-Oxo-5-(trifluoromethyl)-1,6-dihydropyridazin-4-yl)isoindolin-1-yl)methoxy)nicotinoyl)piperazin-1-yl)nicotinonitrile]	100 to 1000

More lines, now with the values ahead:

IC50 [nM]	SMILES
< 100	C[C@@H](COc1cn[nH]c(=O)c1Cl)OCCC(=O)N1CCN(c2ncc(C(F)(F)F)cn2)CC1 [Example 578 Isomer B, (S)-4-Chloro-5-(2-(3-oxo-3-(4-(5-(trifluoromethyl)pyrimidin-2-yl)piperazin-1-yl)propoxy)propoxy)pyridazin-3(2H)-one]
< 100	N#Cc1ccc(N2CCN(C(=O)CCNC[C@@H]3CCCN3c3cn[nH]c(=O)c3C(F)(F)F)CC2)nc1 [Example 135, 6-[4-[3-([[(2S)-1-[6-oxo-5-(trifluoromethyl)-1,6-dihydropyridazin-4-yl]pyrrolidin-2-yl]methyl]amino)propanoyl]piperazin-1-yl]pyridine-3-carbonitrile]
< 100	N#Cc1ccc(N2CCN(C(=O)CCCOC[C@@H]3CCCN3c3cn[nH]c(=O)c3C(F)(F)F)CC2)nc1 [Example 77, 6-[4-(4-[[(2S)-1-[6-oxo-5-(trifluoromethyl)-1,6-dihydropyridazin-4-yl]pyrrolidin-2-yl]methoxy]butanoyl)piperazin-1-yl]pyridine-3-carbonitrile]
< 100	O=c1[nH]ncc(N2Cc3ccc(F)cc3C2)c1Cl [Example 59, 4-Chloro-5-(5-fluoro-2,3-dihydro-1H-isoindol-2-yl)-2,3-dihydropyridazin-3-one]
< 100	N#Cc1ccc(N2CCN(C(=O)C[C@@H]3CC[C@H](CNc4cn[nH]c(=O)c4C(F)(F)F)O3)CC2)nc1 [Example 581 Isomer D, 6-(4-[2-[(2S,5R)-5-([[6-oxo-5-(trifluoromethyl)-1,6-dihydropyridazin-4-yl]amino]methyl)oxolan-2-yl]acetyl]piperazin-1-yl)pyridine-3-carbonitrile]
< 100	N#Cc1ccc(N2CCN(C(=O)c3cccc(OCCOc4cn[nH]c(=O)c4C(F)(F)F)c3)CC2)nc1 [Example 42, 6-(4-[[3-(2-[[6-oxo-5-(trifluoromethyl)-1,6-dihydropyridazin-4-yl]oxy]ethoxy)phenyl]carbonyl]piperazin-1-yl)pyridine-3-carbonitrile]
< 100	O=C(CCOCCOc1cn[nH]c(=O)c1Cl)N1CCN(c2ncc(C(F)(F)F)cn2)CC1 [Example 520, 4-Chloro-5-[2-(3-oxo-3-[4-[5-(trifluoromethyl)pyrimidin-2-yl]piperazin-1-yl]propoxy)ethoxy]-2,3-dihydropyridazin-3-one]
< 100	O=C(CCOCCNc1cn[nH]c(=O)c1Cl)N1CCN(c2ccc(C(F)(F)F)cn2)CC1 [Example 509, 4-Chloro-5-[[2-(3-oxo-3-[4-[5-(trifluoromethyl)pyridin-2-yl]piperazin-1-yl]propoxy)ethyl]amino]-2,3-dihydropyridazin-3-one]
< 100	O=C(CCOCCNc1cn[nH]c(=O)c1C(F)(F)F)N1CCN(c2ccc(C(F)(F)F)cn2)CC1 [Example 504, 5-[[2-(3-Oxo-3-[4-[5-(Trifluoromethyl)pyridin-2-yl]piperazin-1-yl]propoxy)ethyl]amino]-4-(trifluoromethyl)-2,3-dihydropyridazin-3-one]
< 100	N#Cc1cnc(N2CCN(C(=O)c3cccc(OCC4CCCN4c4cn[nH]c(=O)c4C(F)(F)F)c3)CC2)nc1 (centres unmarked) [Example 437, 2-(4-(3-((1-(6-Oxo-5-(trifluoromethyl)-1,6-dihydropyridazin-4-yl)pyrrolidin-2-yl)methoxy)benzoyl)piperazin-1-yl)pyrimidine-5-carbonitrile]
< 100	N#CCc1ccc(N2CCN(C(=O)c3cccc(OC[C@@H]4CCCN4c4cn[nH]c(=O)c4C(F)(F)F)c3)CC2)cc1 [Example 453, (S)-2-(4-(4-(3-((1-(6-Oxo-5-(trifluoromethyl)-1,6-dihydropyridazin-4-yl)pyrrolidin-2-yl)methoxy)benzoyl)piperazin-1-yl)phenyl)acetonitrile]
< 100	C[C@@H](COCCC(=O)N1CCN(c2ncc(Cl)cn2)CC1)Oc1cn[nH]c(=O)c1Br [Example 609, 4-Bromo-5-[[(2S)-1-[3-[4-(5-chloropyrimidin-2-yl)piperazin-1-yl]-3-oxopropoxy]propan-2-yl]oxy]-2,3-dihydropyridazin-3-one]
< 100	N#Cc1ccc(N2CCN(C(=O)CNCC[C@@H]3c4ccccc4CN3c3cn[nH]c(=O)c3C(F)(F)F)CC2)nc1 [Example 144A, 6-[4-[2-([2-[(1R)-2-[6-oxo-5-(trifluoromethyl)-1,6-dihydropyridazin-4-yl]-2,3-dihydro-1H-isoindol-1-yl]ethyl]amino)acetyl]piperazin-1-yl]pyridine-3-carbonitrile]
< 100	C[C@@H](COCCS(=O)(=O)N1CCN(c2ncc(C(F)(F)F)s2)CC1)Nc1cn[nH]c(=O)c1Br [Example 732, (S)-4-Bromo-5-((1-(2-((4-(5-(trifluoromethyl)thiazol-2-yl)piperazin-1-yl)sulfonyl)ethoxy)propan-2-yl)amino)pyridazin-3(2H)-one]
< 100	C[C@@H](COCCC(=O)N1CCN(c2ncc(Cl)s2)CC1)Oc1cn[nH]c(=O)c1C(F)(F)F [Example 723, (S)-5-((1-(3-(4-(5-Chlorothiazol-2-yl)piperazin-1-yl)-3-oxopropoxy)propan-2-yl)oxy)-4-(trifluoromethyl)pyridazin-3(2H)-one]
< 100	O=c1[nH]ncc(N2Cc3ccc(OCc4cccnc4)nc3C2)c1C(F)(F)F [Example 313, 5-(2-(Pyridin-3-ylmethoxy)-5,7-dihydro-6H-pyrrolo[3,4-b]pyridin-6-yl)-4-(trifluoromethyl)pyridazin-3(2H)-one]
